Measurements reported in patent publication US11970494B2, “6-heteroaryloxy benzimidazoles and azabenzimidazoles as JAK2 inhibitors” (Ajax Therapeutics, Inc., priority 2021, dated 2024).

How the values were obtained:
Tyk2 = target: T1, Tyk2 (Homo sapiens, UniProt P29597); test: JAK Family Selectivity Assay: Tyk2 vs JAK2 binding affinity; settings: Kd TYK2 over Kd JAK2
T1 construct: made in house; host or cells: T7 phage in BL21-derived E. coli or HEK-293 cells
Experimental: Provided compounds are evaluated for selectivity by comparing their JAK2 binding affinity (Kd) in the above JAK2 Binding Assay with their binding affinity (Kd) for one or more other kinases. Binding affinity for other kinases is determined as follows: Kinase-tagged T7 phage strains are prepared in an E. coli host derived from the BL21 strain. E. coli are grown to log-phase and infected with T7 phage and incubated with shaking at 32° C. until lysis. The lysates are centrifuged and filtered to remove cell debris. The remaining kinases are produced in HEK-293 cells and subsequently tagged with DNA for qPCR detection. Streptavidin-coated magnetic beads are treated with biotinylated small molecule ligands for 30 minutes at room temperature to generate affinity resins for kinase assays. The liganded beads are blocked with excess biotin and washed with blocking buffer (SeaBlock (Pierce), 1% BSA, 0.05% Tween 20, 1 mM DTT) to remove unbound ligand and to reduce non-specific binding. Binding reactions are assembled by combining kinases, liganded affinity beads, and test compounds in 1× binding buffer (20% SeaBlock, 0.17×PBS, 0.05% Tween 20, 6 mM DTT). Test compounds are prepared as 111× stocks in 100% DMSO. Kds are determined using an 11-point 3-fold compound dilution series with three DMSO control points. All compounds for Kd measurements are distributed by acoustic transfer (non-contact dispensing) in 100% DMSO. The compounds are then diluted directly into the assays such that the final concentration of DMSO is 0.9%. All reactions are performed in polypropylene 384-well plate. Each has a final volume of 0.02 ml. The assay plates are incubated at room temperature with shaking for 1 hour and the affinity beads are washed with wash buffer (1×PBS, 0.05% Tween 20). The beads are then re-suspended in elution buffer (1× PBS, 0.05% Tween 20, 0.5 μM non-biotinylated affinity ligand) and incubated at room temperature with shaking for 30 minutes. The kinase concentration in the eluates is measured by qPCR. […] In some embodiments, provided compounds may be JAK2-selective over one or more of the following kinases: JAK1, JAK3, and Tyk2.

[1] = Hepatocyte Stability Assay, human hepatocytes; format: in vitro ADME; settings: cryopreserved hepatocytes, read-out: Human Heps CLint
Experimental: 10 mM stock solutions of test compound and positive control are prepared in DMSO. Stock solutions are diluted to 100 μM by combining 198 μL of 50% acetonitrile/50% water and 2 μL of 10 mM stock solution. Verapamil is used as positive control in the assay. Vials of cryopreserved hepatocytes are thawed in a 37° C. water bath with gently shaking. The contents are poured into the 50 mL thawing medium conical tube. Vials are centrifuged at 100 g for 10 minutes at room temperature. Thawing medium is aspirated and hepatocytes are re-suspended with serum-free incubation medium to yield ˜1.5×10^6 cells/mL. Cell viability and density are counted using a Trypan Blue exclusion, and then cells are diluted with serum-free incubation medium to a working cell density of 0.5×10^6 viable cells/mL. A portion of the hepatocytes at 0.5×10^6 viable cells/mL are boiled for 5 min prior to adding to the plate as negative control to eliminate the enzymatic activity so that little or no substrate turnover should be observed. Aliquots of 198 μL hepatocytes are dispensed into each well of a 96-well non-coated plate. The plate is placed in the incubator for approximately 10 minutes. Aliquots of 2 μL of the 100 μM test compound and 2 μL positive control are added into respective wells of a non-coated 96-well plate to start the reaction. The final concentration of test compound is 1 μM. This assay is performed in duplicate. The plate is incubated in the incubator for the designed time points. 25 μL of contents are transferred and mixed with 6 volumes (150 μL) of cold acetonitrile with internal standard (100 nM alprazolam, 200 nM labetalol, 200 nM caffeine and 200 nM diclofenac) to terminate the reaction at time points of 0, 15, 30, 60, 90 and 120 minutes. Samples are centrifuged for 25 minutes at 3,220 g and aliquots of 150 μL of the supernatants are used for LC-MS/MS analysis.

T1 sequence (P29597 whole entry): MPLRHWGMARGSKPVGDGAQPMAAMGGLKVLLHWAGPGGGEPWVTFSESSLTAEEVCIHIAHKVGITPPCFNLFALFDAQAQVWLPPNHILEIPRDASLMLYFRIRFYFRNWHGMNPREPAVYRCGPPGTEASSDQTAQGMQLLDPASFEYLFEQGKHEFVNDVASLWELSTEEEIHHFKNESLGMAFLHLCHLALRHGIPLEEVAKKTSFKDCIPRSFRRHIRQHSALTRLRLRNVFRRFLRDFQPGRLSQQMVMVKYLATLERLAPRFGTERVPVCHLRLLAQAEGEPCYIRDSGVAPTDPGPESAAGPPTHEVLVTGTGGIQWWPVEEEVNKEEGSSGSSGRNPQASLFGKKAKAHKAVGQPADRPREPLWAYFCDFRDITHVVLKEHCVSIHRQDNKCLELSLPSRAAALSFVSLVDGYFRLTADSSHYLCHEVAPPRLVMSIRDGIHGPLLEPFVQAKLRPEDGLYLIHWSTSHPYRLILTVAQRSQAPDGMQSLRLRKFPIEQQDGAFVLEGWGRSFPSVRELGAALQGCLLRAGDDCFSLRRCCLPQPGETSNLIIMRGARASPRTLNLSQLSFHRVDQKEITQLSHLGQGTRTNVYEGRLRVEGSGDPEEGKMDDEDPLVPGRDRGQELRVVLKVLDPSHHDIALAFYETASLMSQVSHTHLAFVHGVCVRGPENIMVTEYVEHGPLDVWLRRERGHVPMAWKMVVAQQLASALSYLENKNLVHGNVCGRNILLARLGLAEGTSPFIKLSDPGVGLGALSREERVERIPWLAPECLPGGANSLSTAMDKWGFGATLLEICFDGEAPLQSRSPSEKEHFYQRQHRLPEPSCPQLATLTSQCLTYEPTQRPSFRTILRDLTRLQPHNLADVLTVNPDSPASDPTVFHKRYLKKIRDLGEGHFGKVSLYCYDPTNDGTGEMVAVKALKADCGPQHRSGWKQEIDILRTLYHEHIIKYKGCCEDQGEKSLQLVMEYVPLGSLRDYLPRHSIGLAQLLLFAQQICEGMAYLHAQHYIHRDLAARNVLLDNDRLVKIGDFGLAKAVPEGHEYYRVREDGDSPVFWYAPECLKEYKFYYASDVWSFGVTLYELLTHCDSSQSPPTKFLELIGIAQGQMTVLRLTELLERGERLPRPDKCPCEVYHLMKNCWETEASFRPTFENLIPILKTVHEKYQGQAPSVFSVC

Row | Compound | TYK2/JAK2 Kd/Kd ratio (Tyk2) | CLint scaled at 1 μM [1] [mL/min/kg]
1 | COC(=O)Nc1cc(Oc2cnc3nc(Nc4cc(C(F)(F)F)cn(C)c4=O)n(C)c3c2C#N)ccn1 [Example I-3, Methyl (4-((7-cyano-1-methyl-2-((1-methyl-2-oxo-5-(trifluoromethyl)-1,2-dihydropyridin-3-yl)amino)-1H-imidazo[4,5-b]pyridin-6-yl)oxy)pyridin-2-yl)carbamate] | C (Kd/Kd ratio <300 and ≥100) | ≤ 6
2 | CN(C)C(=O)Nc1cc(Oc2cnc3nc(Nc4cc(C(F)(F)F)cn(C)c4=O)n(C)c3c2C#N)ccn1 [Example I-4, 3-(4-((7-cyano-1-methyl-2-((1-methyl-2-oxo-5-(trifluoromethyl)-1,2-dihydropyridin-3-yl)amino)-1H-imidazo[4,5-b]pyridin-6-yl)oxy)pyridin-2-yl)-1,1-dimethylurea] | C (Kd/Kd ratio <300 and ≥100) | ≤ 6
3 | Cn1cc(C(F)(F)F)cc(Nc2nc3ncc(Oc4ccnc(NC(=O)N5CCC5)c4)c(C#N)c3n2C)c1=O [Example I-7, N-(4-((7-cyano-1-methyl-2-((1-methyl-2-oxo-5-(trifluoromethyl)-1,2-dihydropyridin-3-yl)amino)-1H-imidazo[4,5-b]pyridin-6-yl)oxy)pyridin-2-yl)azetidine-1-carboxamide] | D (Kd/Kd ratio <100) | ≤ 6
4 | CO[C@H]1CCN(C(=O)Nc2cc(Oc3cnc4nc(Nc5cc(C(F)(F)F)cn(C)c5=O)n(C)c4c3C#N)ccn2)C1 [Example I-14, (S)-N-(4-((7-cyano-1-methyl-2-((1-methyl-2-oxo-5-(trifluoromethyl)-1,2-dihydropyridin-3-yl)amino)-1H-imidazo[4,5-b]pyridin-6-yl)oxy)pyridin-2-yl)-3-methoxypyrrolidine-1-carboxamide] | C (Kd/Kd ratio <300 and ≥100) | ≤ 6
5 | Cn1cc(C(F)(F)F)cc(Nc2nc3ncc(Oc4ccnc(NC(=O)OCCN5CCOCC5)c4)c(C#N)c3n2C)c1=O [Example I-15, 2-Morpholinoethyl(4-((7-cyano-1-methyl-2-((1-methyl-2-oxo-5-(trifluoromethyl)-1,2-dihydropyridin-3-yl)amino)-1H-imidazo[4,5-b]pyridin-6-yl)oxy)pyridin-2-yl)carbamate] | B (Kd/Kd ratio <1000 and ≥300) | ≤ 6
6 | Cn1cc(C(F)(F)F)cc(Nc2nc3ncc(Oc4ccnc(NC(=O)O[C@@H]5CCOC5)c4)c(C#N)c3n2C)c1=O [Example I-18, (R)-Tetrahydrofuran-3-yl(4-((7-cyano-1-methyl-2-((1-methyl-2-oxo-5-(trifluoromethyl)-1,2-dihydropyridin-3-yl)amino)-1H-imidazo[4,5-b]pyridin-6-yl)oxy)pyridin-2-yl)carbamate] | C (Kd/Kd ratio <300 and ≥100) | 6 to 12
7 | COC1CN(C(=O)Nc2cc(Oc3cnc4nc(Nc5cc6n(n5)CCCC6(F)F)n(C)c4c3C#N)ccn2)C1 [Example I-26, N-(4-((7-cyano-2-((4,4-difluoro-4,5,6,7-tetrahydropyrazolo[1,5-a]pyridin-2-yl)amino)-1-methyl-1H-imidazo[4,5-b]pyridin-6-yl)oxy)pyridin-2-yl)-3-methoxyazetidine-1-carboxamide] | – | 6 to 12
8 | Cn1c(Nc2cc3n(n2)CCOC3(C)C)nc2ncc(Oc3ccnc(NC(=O)O[C@@H]4CCOC4)c3)c(C#N)c21 [Example I-48, (R)-Tetrahydrofuran-3-yl(4-((7-cyano-2-((4,4-dimethyl-6,7-dihydro-4H-pyrazolo[5,1-c][1,4]oxazin-2-yl)amino)-1-methyl-1H-imidazo[4,5-b]pyridin-6-yl)oxy)pyridin-2-yl)carbamate] | – | 6 to 12
9 | CN(C)C(=O)Nc1cc(Oc2cnc3nc(Nc4cc5n(n4)CCC54CCC4)n(C)c3c2C#N)ccn1 [Example I-56, 3-(4-((7-cyano-2-((5′,6′-dihydrospiro[cyclobutane-1,4′-pyrrolo[1,2-b]pyrazol]-2′-yl)amino)-1-methyl-1H-imidazo[4,5-b]pyridin-6-yl)oxy)pyridin-2-yl)-1,1-dimethylurea] | – | ≤ 6
10 | COC(=O)Nc1cc(Oc2cnc3nc(Nc4cc5n(n4)CCC54CCC4)n(C)c3c2C#N)ccn1 [Example I-57, methyl(4-((7-cyano-2-((5′,6′-dihydrospiro[cyclobutane-1,4′-pyrrolo[1,2-b]pyrazol]-2′-yl)amino)-1-methyl-1H-imidazo[4,5-b]pyridin-6-yl)oxy)pyridin-2-yl)carbamate] | – | 6 to 12
11 | CO[C@@H]1CCN(C(=O)Nc2cc(Oc3cnc4nc(Nc5cc6n(n5)CCC65CCC5)n(C)c4c3C#N)ccn2)C1 [Example I-60, (R)-N-(4-((7-cyano-2-((5′,6′-dihydrospiro[cyclobutane-1,4′-pyrrolo[1,2-b]pyrazol]-2′-yl)amino)-1-methyl-1H-imidazo[4,5-b]pyridin-6-yl)oxy)pyridin-2-yl)-3-methoxypyrrolidine-1-carboxamide] | D (Kd/Kd ratio <100) | 6 to 12
12 | COC1CN(C(=O)Nc2cc(Oc3cnc4nc(Nc5cc6n(n5)CCC65CCC5)n(C)c4c3C#N)ccn2)C1 [Example I-61, N-(4-((7-cyano-2-((5′,6′-dihydrospiro[cyclobutane-1,4′-pyrrolo[1,2-b]pyrazol]-2′-yl)amino)-1-methyl-1H-imidazo[4,5-b]pyridin-6-yl)oxy)pyridin-2-yl)-3-methoxyazetidine carboxamide] | D (Kd/Kd ratio <100) | ≤ 6
13 | COCCOC(=O)Nc1cc(Oc2cnc3nc(Nc4cc5n(n4)CCC54CCC4)n(C)c3c2C#N)ccn1 [Example I-62, 2-methoxyethyl(4-((7-cyano-2-((5′,6′-dihydrospiro[cyclobutane-1,4′-pyrrolo[1,2-b]pyrazol]-2′-yl)amino)-1-methyl-1H-imidazo[4,5-b]pyridin-6-yl)oxy)pyridin-2-yl)carbamate] | C (Kd/Kd ratio <300 and ≥100) | 6 to 12
14 | COCC(=O)Nc1cc(Oc2cnc3nc(Nc4cc(C(F)(F)F)cn(C)c4=O)n(C)c3c2Cl)ccn1 [Example I-75, N-(4-((7-chloro-1-methyl-2-((1-methyl-2-oxo-5-(trifluoromethyl)-1,2-dihydropyridin-3-yl)amino)-1H-imidazo[4,5-b]pyridin-6-yl)oxy)pyridin-2-yl)-2-methoxyacetamide] | C (Kd/Kd ratio <300 and ≥100) | 12 to 20
15 | CC(=O)Nc1cc(Oc2cnc3nc(Nc4cc5n(n4)CCCC54CC4)n(C)c3c2C#N)ccn1 [Example I-114, N-(4-((7-cyano-2-((6′,7′-dihydro-5′H-spiro[cyclopropane-1,4′-pyrazolo[1,5-a]pyridin]-2′-yl)amino)-1-methyl-1H-imidazo[4,5-b]pyridin-6-yl)oxy)pyridin-2-yl)acetamide] | – | 6 to 12
16 | CC(=O)Nc1cc(Oc2cnc3nc(Nc4cc5n(n4)CCOCC5(C)C)n(C)c3c2C#N)ccn1 [Example I-118, N-(4-((7-cyano-2-((4,4-dimethyl-4,5,7,8-tetrahydropyrazolo[1,5-d][1,4]oxazepin-2-yl)amino)-1-methyl-1H-imidazo[4,5-b]pyridin-6-yl)oxy)pyridin-2-yl)acetamide] | – | ≤ 6
